Changes are numbered by the printed parent chain.
What was measured:
Format in all cases: cell-based
[1] = target: T1, AR protein (Homo sapiens, UniProt P10275); assay: Degradation of AR protein in VCaP cells (Western blot); conditions: 8 hours; for inhibition at 0.01 µM: read-out: Degradation rate of the AR protein in VCaP cells, 10 nM (%); for inhibition at 0.1 µM: read-out: Degradation rate of the AR protein in VCaP cells, 100 nM (%)
T1 construct: degradation activity of the compounds disclosed in the present disclosure on AR protein in VCaP cells; host or cells: VCaP
T1 sequence (P10275 1-920): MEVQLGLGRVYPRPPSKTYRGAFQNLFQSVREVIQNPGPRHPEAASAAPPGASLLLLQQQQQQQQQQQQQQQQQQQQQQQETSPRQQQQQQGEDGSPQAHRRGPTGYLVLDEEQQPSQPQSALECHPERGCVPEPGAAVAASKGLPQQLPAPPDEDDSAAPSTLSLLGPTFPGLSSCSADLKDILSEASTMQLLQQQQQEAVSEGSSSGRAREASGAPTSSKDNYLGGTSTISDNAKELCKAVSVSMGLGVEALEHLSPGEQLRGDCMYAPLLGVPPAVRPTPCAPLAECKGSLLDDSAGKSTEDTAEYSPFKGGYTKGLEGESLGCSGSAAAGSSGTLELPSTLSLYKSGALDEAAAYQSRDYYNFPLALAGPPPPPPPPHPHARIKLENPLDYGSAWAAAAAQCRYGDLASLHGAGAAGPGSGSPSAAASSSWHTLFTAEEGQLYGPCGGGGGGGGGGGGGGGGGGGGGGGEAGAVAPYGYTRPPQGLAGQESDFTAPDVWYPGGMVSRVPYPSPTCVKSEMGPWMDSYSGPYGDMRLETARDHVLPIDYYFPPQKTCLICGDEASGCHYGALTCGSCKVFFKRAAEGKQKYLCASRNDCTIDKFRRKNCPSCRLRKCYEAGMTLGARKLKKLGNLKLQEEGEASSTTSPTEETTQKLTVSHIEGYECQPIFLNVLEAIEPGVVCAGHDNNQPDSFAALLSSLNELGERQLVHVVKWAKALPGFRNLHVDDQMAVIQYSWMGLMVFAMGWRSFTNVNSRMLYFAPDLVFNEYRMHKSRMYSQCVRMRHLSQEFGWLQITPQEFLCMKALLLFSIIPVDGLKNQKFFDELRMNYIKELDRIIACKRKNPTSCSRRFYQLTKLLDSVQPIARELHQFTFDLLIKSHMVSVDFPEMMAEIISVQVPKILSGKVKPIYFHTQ
Method in brief: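 Western blot readout: AR band grayscale normalised to GAPDH, used to derive degradation rate. Lysates came from VCaP cells exposed to compound for 8 h, with solvent controls run in parallel.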

[2] = test system: VCaP cells; assay: Inhibition of proliferation of VCaP cells (WST-8); conditions: Homo sapiens; VCaP cells, 168 hours, WST-8 absorbance at 450 nm; read-out: IC50 for inhibiting the proliferation of VCaP cells
Description: The inhibitory activity of the compounds disclosed in the present disclosure on the proliferation of VCaP cells
On the first day of the experiment, […] were inoculated in 96 well plates at a density of 15000 cells per well using DMEM medium containing 10% fetal bovine serum, with 100 μL of cell suspension per well. The cells were cultured in a cell culture incubator with 5% CO2 at 37° C. overnight. […] On the ninth day, 96 well plates were taken out, and 20 μL of WST-8 (Beytime, C0040) reagent was added to each well.

[3] = test system: LNCaP FGC cells; assay: Inhibition of proliferation of LNCaP cells (WST-8); conditions: Homo sapiens, LNCaP, 96 h, LNCaP FGC cells, 96 hours, WST-8 absorbance at 450 nm; read-out: IC50 for inhibiting the proliferation of LNCaP cells
Description: The cells were cultured in a cell culture incubator with 5% CO2 at 37° C. overnight. […] On the sixth day, 96 well plates were taken out, and 20 μL of WST-8 (Beytime, C0040) reagent was added to each well.

[4] = target: T2, AR protein (Homo sapiens, UniProt P10275, T878A); assay: Degradation of AR protein in LNCaP cells (Western blot); conditions: LNCaP cells, 8 hours, Western blot grayscale, GAPDH internal reference; for inhibition at 0.01 µM: compound 10 nM, read-out: Degradation rates of the AR protein in LNCaP cells, 10 nM (%); for inhibition at 0.1 µM: compound 100 nM, read-out: Degradation rates of the AR protein in LNCaP cells, 100 nM (%)
T2 construct: degradation activity of the compounds disclosed in the present disclosure on AR protein in LNCaP cells; host or cells: LNCaP FGC
T2 sequence (P10275 1-920 T878A): T1 sequence (P10275 1-920) with T878A
Method in brief: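 Percent AR degradation was derived from GAPDH-normalised Western blot band intensities (infrared detection) in LNCaP lysates.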

Structure (SMILES) | inhibition at 0.01 µM ([1]; compound at 10 nM) | inhibition at 0.1 µM ([1]; compound at 100 nM) | IC50 [2] | IC50 [3] | inhibition at 0.01 µM [4] | inhibition at 0.1 µM [4] | Degradation rate of the AR protein in VCaP cells, 10 nM (%) ([1]; compound at 10 nM) | Degradation rate of the AR protein in VCaP cells, 100 nM (%) ([1]; compound at 100 nM)
N#Cc1ccc(O[C@H]2CC[C@H](NC(=O)c3ccc(N4CCC(CN5CCC6(CC5)COc5c6ccc6c5CN(C5CCC(=O)NC5=O)C6=O)(C5CC5)CC4)nn3)CC2)cc1Cl (stereo partly shown) [Compound 238] | 54% | 79% | 0.0016 µM | 0.021 µM | 31% | 61% | – | –
CCOC1(CN2CCC3(CC2)COc2c3ccc3c2C(=O)N(C2CCC(=O)NC2=O)C3=O)CCN(c2ccc(C(=O)N[C@H]3CC[C@H](Oc4ccc(C#N)c(C(F)(F)F)c4)CC3)nn2)CC1 (stereo partly shown) [Compound 242] | -5% | 15% | 0.094 µM | 0.64 µM | -18% | 11% | – | –
COc1cc(O[C@H]2C(C)(C)[C@H](NC(=O)c3ccc(N4CCC(C)(CN5CCC6(CCc7cc8c(cc7O6)CN(C6CCC(=O)NC6=O)C8=O)CC5)CC4)cc3)C2(C)C)ccc1C#N (stereo partly shown) [Compound 281] | -11% | 60% | 0.004 µM | 2.14 µM | 20% | 56% | – | –
N#Cc1ccc(O[C@H]2CC[C@H](NC(=O)c3ccc(N4CCC(CO)(CN5CCC6(CC5)COc5c6ccc6c5CN(C5CCC(=O)NC5=O)C6=O)CC4)nn3)CC2)cc1Cl (stereo partly shown) [Compound 257] | 67% | 75% | 0.0015 µM | 0.014 µM | 36% | -41% | – | –
COc1cc(O[C@H]2CC[C@H](NC(=O)c3ccc(N4CCC(O)(CN5CCC6(CC5)COc5c6ccc6c5C(=O)N(C5CCC(=O)NC5=O)C6=O)CC4)nn3)CC2)ccc1C#N (stereo partly shown) [Compound 215] | 63% | 82% | 0.5 µM | 0.22 µM | 86% | 91% | – | –
COc1cc(O[C@H]2C(C)(C)[C@H](NC(=O)c3ccc(N4CCC(C)(CN5CC6(CCc7cc8c(cc7O6)C(=O)N(C6CCC(=O)NC6=O)C8=O)C5)CC4)cc3)C2(C)C)ccc1C#N (stereo partly shown) [Compound 291] | 21% | 53% | 0.047 µM | 2.88 µM | 9% | 57% | – | –
COc1cc(O[C@H]2C(C)(C)[C@H](NC(=O)c3ccc(N4CCC(F)(CN5CCC6(CC5)COc5cc7c(cc5O6)CN(C5CCC(=O)NC5=O)C7=O)CC4)cc3)C2(C)C)ccc1C#N (stereo partly shown) [Compound 284] | 9% | 73% | 0.019 µM | 5.84 µM | 18% | 51% | – | –
N#Cc1ccc(O[C@H]2CC[C@H](NC(=O)c3ccc(N4CCC(CN5CC6(CCc7cc8c(cc7O6)CN(C6CCC(=O)NC6=O)C8=O)C5)CC4)nn3)CC2)cc1Cl (stereo partly shown) [Compound 7] | 72% | 79% | 3.54 µM | 1.57 µM | 86% | 79% | – | –
N#Cc1ccc(O[C@H]2CC[C@H](NC(=O)c3ccc(N4CCC5(CC4)CC(C(=O)N4CCC6(CC4)COc4c6ccc6c4CN(C4CCC(=O)NC4=O)C6=O)C5)nn3)CC2)cc1Cl (stereo partly shown) [Compound 254] | 56% | 85% | 0.0025 µM | 49.1 µM | 53% | 45% | – | –
COc1cc(OC2CCC(NC(=O)c3cnc(N4CCC(C)(CN5CCC6(CC5)COc5c6ccc6c5C(=O)N(C5CCC(=O)NC5=O)C6=O)CC4)nc3)CC2)ccc1C#N (stereo not shown) [Compound 246] | -19% | 61% | 0.12 µM | 0.87 µM | 17% | 43% | – | –
N#Cc1ccc(O[C@H]2CC[C@H](NC(=O)c3ccc(C#CC4CCC(N5CCC6(CC5)COc5c6ccc6c5CN(C5CCC(=O)NC5=O)C6=O)CC4)nc3)CC2)cc1Cl (stereo partly shown) [Compound 235] | 35% | 76% | 0.002 µM | 0.84 µM | 39% | 36% | – | –
N#Cc1ccc(O[C@H]2CC[C@H](NC(=O)c3ccc(N4CCC5(CCC(N6CCC7(CCc8ccc9c(c8O7)CN(C7CCC(=O)NC7=O)C9=O)CC6)CC5)CC4)nn3)CC2)cc1Cl (stereo partly shown) [Compound 150] | 65% | 86% | 3.34 µM | 3.13 µM | 52% | 35% | – | –
N#Cc1ccc(O[C@H]2CC[C@H](NC(=O)c3ccc(N4CC5(CCC(C(=O)N6CCC7(CC6)COc6c7ccc7c6CN(C6CCC(=O)NC6=O)C7=O)CC5)C4)nn3)CC2)cc1Cl (stereo partly shown) [Compound 255] | 63% | 82% | 0.011 µM | 50.2 µM | 55% | 44% | – | –
N#Cc1ccc(O[C@H]2CC[C@H](NC(=O)c3ccc(N4CCC(CN5CCC6(CC5)COc5cc7c(cc56)C(=O)N(C5CCC(=O)NC5=O)C7=O)CC4)nn3)CC2)cc1Cl (stereo partly shown) [Compound 56] | 79% | 88% | 0.06 µM | 0.35 µM | 44% | 77% | – | –
N#Cc1ccc(O[C@H]2CC[C@H](NC(=O)c3ccc(N4CCC(C(=O)N5CCC(N6CCC7(CC6)COc6c7ccc7c6CN(C6CCC(=O)NC6=O)C7=O)CC5)CC4)nn3)CC2)cc1Cl (stereo partly shown) [Compound 161] | – | – | 0.003 µM | 0.44 µM | – | – | 47% | 84%
